The term IC50 denotes the midpoint of a concentration-inhibition curve. Low values mean inhibition by little substance, high ones a need for much substance.

In ChEMBL document CHEMBL1130887, “Serine derived NK1 antagonists. 2: A pharmacophore model for arylsulfonamide binding” (Bioorg Med Chem Lett, 1998) one finds IC50 data, which are given here for 12 molecules.

Sequence of Substance-P receptor (P25103 whole entry): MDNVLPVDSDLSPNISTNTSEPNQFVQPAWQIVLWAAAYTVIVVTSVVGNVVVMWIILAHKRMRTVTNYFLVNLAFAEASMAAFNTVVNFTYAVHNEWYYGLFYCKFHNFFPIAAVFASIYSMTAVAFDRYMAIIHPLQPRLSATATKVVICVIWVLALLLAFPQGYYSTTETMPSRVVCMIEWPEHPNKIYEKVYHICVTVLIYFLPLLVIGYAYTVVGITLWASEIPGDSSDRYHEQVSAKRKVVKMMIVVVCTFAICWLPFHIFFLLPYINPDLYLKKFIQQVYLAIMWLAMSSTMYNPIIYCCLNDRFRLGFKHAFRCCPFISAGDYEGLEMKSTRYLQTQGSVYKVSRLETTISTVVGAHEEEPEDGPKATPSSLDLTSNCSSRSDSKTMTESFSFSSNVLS

The assay addresses Substance-P receptor (Homo sapiens, UniProt P25103). The experiment in a line: Displacement of [125I]-substance P from hNK1 receptor in chinese hamster ovarian (CHO) cells. The format is cell-based.
In turn, `CS(=O)(=O)Nc1ccccc1N1CCN(C(=O)[C@H](COCc2ccc(Cl)c(Cl)c2)NCc2ccccc2)CC1` gave an IC50 of 4.8 nM. The figure for `CS(=O)(=O)N(CC1CCN(C(=O)[C@H](COCc2ccc(Cl)c(Cl)c2)NCc2ccccc2)CC1)c1ccccc1` is 547 nM; for `O=C([C@H](COCc1ccc(Cl)c(Cl)c1)NCc1ccccc1)N1CCC2(CCc3ccccc32)CC1` it is 602 nM; for `Cc1ccccc1C1CCN(C(=O)[C@H](COCc2ccc(Cl)c(Cl)c2)NCc2ccccc2)CC1` it is 330 nM. `CN(c1ccccc1C1CCN(C(=O)[C@H](COCc2ccc(Cl)c(Cl)c2)NCc2ccccc2)CC1)S(C)(=O)=O` yielded an IC50 of 61 nM. Under `CS(=O)(=O)Nc1ccccc1C1CCN(C(=O)[C@H](COCc2ccc(Cl)c(Cl)c2)NCc2ccccc2)CC1` stands 17 nM. Turning to `COc1ccccc1C1CCN(C(=O)[C@H](COCc2ccc(Cl)c(Cl)c2)NCc2ccccc2)CC1`, the IC50 came to 263 nM.

`Cc1ccccc1N1CCN(C(=O)[C@H](COCc2ccc(Cl)c(Cl)c2)NCc2ccccc2)CC1` yielded an IC50 of 558 nM.

Turning to `CS(=O)(=O)N1CC2(CCN(C(=O)[C@H](COCc3ccc(Cl)c(Cl)c3)NCc3ccccc3)CC2)c2ccccc21`, the IC50 was 1 nM. As to `COc1ccccc1N1CCN(C(=O)[C@H](COCc2ccc(Cl)c(Cl)c2)NCc2ccccc2)CC1`, the IC50 was 13 nM. Under `CS(=O)(=O)NCC1(c2ccccc2)CCN(C(=O)[C@H](COCc2ccc(Cl)c(Cl)c2)NCc2ccccc2)CC1` stands 382 nM; under `CS(=O)(=O)N1CCC2(CCN(C(=O)[C@H](COCc3ccc(Cl)c(Cl)c3)NCc3ccccc3)CC2)C1`, 2500 nM.
